This note sets out measurements from patent US11584765B2 (priority 2017, dated 2023).

Some results are limits rather than exact numbers.

The experiment deals with C57BL/6 mice. Nature of the experiment: animal or person. The format is in vivo. As to conditions: Mus musculus, sc, 0.5 h, s.c. administration, 30 min, 55° C. water, read-out: ED50 (mg/kg) at 30 min on C57BL/6 mice in Warm-water Tail-flick Test.
For the molecule `CC(=O)Nc1ccc(CN2CCC(CCc3ccccc3)(C3C=C(C)CO3)C2)cc1` (stereo not drawn) [Compound 202, N-(4-((3-(4-methyl-2,5-dihydrofuran-2-yl)-3-phenethylpyrrolidin-1-yl)methyl)phenyl)acetamide], the ED50 is < 10 mg/kg. In the case of `CC(=O)Nc1ccc(CN2CCC(CCc3ccccc3)(c3cc(C)co3)C2)cc1` (stereo not drawn) [Compound 203, N-(4-((3-(4-methylfuran-2-yl)-3-phenethylpyrrolidin-1-yl)methyl)phenyl)acetamide], the ED50 is > 10 mg/kg. Turning to `CCOC[C@@]1(CCc2ccccc2)CCN(Cc2ccc(NC(C)=O)cc2)C1` [Compound 204, (S)-N-(4-((3-(ethoxymethyl)-3-phenethylpyrrolidin-1-yl)methyl)phenyl)acetamide], the ED50 was > 10 mg/kg.

On to `CCOC[C@]1(CCc2ccccc2)CCN(Cc2ccc(NC(C)=O)cc2)C1` [Compound 205, (R)-N-(4-((3-(ethoxymethyl)-3-phenethylpyrrolidin-1-yl)methyl)phenyl)acetamide], for which the ED50 is < 10 mg/kg. For the molecule `CCOCC1(CCc2ccccc2)CCN(Cc2ccc(Nc3cnccn3)cc2)C1` (stereo not drawn) [Compound 206, N-(4-((3-(ethoxymethyl)-3-phenethylpyrrolidin-1-yl)methyl)phenyl)pyrazin-2-amine], the ED50 was > 10 mg/kg. In the case of `CCOCC1(CCc2ccccc2)CCN(Cc2ccc(Nc3ncccn3)cc2)C1` (stereo not drawn) [Compound 207, N-(4-((3-(ethoxymethyl)-3-phenethylpyrrolidin-1-yl)methyl)phenyl)pyri-midin-2-amine], the ED50 was > 10 mg/kg. As to `CC(=O)Nc1ccc(CN2CCC(CCc3ccccc3)(C3CCCCO3)C2)cc1` (stereo not drawn) [Compound 208, N-(4-((3-phenethyl-3-(tetrahydro-2H-pyran-2-yl)pyrrolidin-1-yl)methyl)phenyl)acetamide], the ED50 is < 10 mg/kg. For the molecule `c1ccc(CCC2(C3CCCCO3)CCN(Cc3ccccc3-c3cccs3)C2)cc1` (stereo not drawn) [Compound 209, 3-phenethyl-3-(tetrahydro-2H-pyran-2-yl)-1-(2-(thiophen-2-yl)benzyl)pyrrolidine], the ED50 is > 10 mg/kg.

Turning to `Clc1ccccc1CN1CCC(CCc2ccccc2)(C2CCCCO2)C1` (stereo not drawn) [Compound 210, 1-(2-chlorobenzyl)-3-phenethyl-3-(tetrahydro-2H-pyran-2-yl)pyrrolidine], the ED50 is > 10 mg/kg. In the case of `Cc1nc(CN2CCC(CCc3ccccc3)(C3CCCCO3)C2)cs1` (stereo not drawn) [Compound 211, 2-methyl-4-((3-phenethyl-3-(tetrahydro-2H-pyran-2-yl)pyrrolidin-1-yl)methyl)thiazole] it was > 10 mg/kg; in that of `c1ccc(CCC2(C3CCCO3)CCN(Cc3cn[nH]c3)C2)cc1` (stereo not drawn) [Compound 212, 4-((3-phenethyl-3-(tetrahydrofuran-2-yl)pyrrolidin-1-yl)methyl)-1H-pyrazole], > 10 mg/kg; in that of `Cn1ccc(CN2CCC(CCc3ccccc3)(C3CCCO3)C2)n1` (stereo not drawn) [Compound 214, 1-methyl-3-((3-phenethyl-3-(tetrahydrofuran-2-yl)pyrrolidin-1-yl)methyl)-1H-pyrazole], > 10 mg/kg. As to `Cn1nccc1CN1CCC(CCc2ccccc2)(C2CCCO2)C1` (stereo not drawn) [Compound 215, l-methyl-5-((3-phenethyl-3-(tetrahydrofuran-2-yl)pyrrolidin-1-yl)methyl)-1H-pyrazole], the ED50 was < 10 mg/kg.

For the molecule `CC(=O)Nc1ccc(CN2CCC(CCc3ccccc3)(C3OCC=C3C)C2)cc1` (stereo not drawn) [Compound 216, N-(4-((3-(3-methyl-2,5-dihydrofuran-2-yl)-3-phenethylpyrrolidin-1-yl)methyl)phenyl)acetamide], the ED50 is < 10 mg/kg. Regarding `CCOCC1(CCc2ccccc2)CCN(Cc2cnn(C)c2)C1` (stereo not drawn) [Compound 217, 4-((3-(ethoxymethyl)-3-phenethylpyrrolidin-1-yl)methyl)-1-methyl-1H-pyrazole], the ED50 is < 10 mg/kg. For the molecule `c1ccc(CCC2(C3CCCO3)CCN(Cc3cccc(-c4ccco4)c3)C2)cc1` (stereo not drawn) [Compound 219], the ED50 was > 10 mg/kg. With `c1ccc(CCC2(C3CCCO3)CCN(Cc3ccc(-c4ccco4)cc3)C2)cc1` (stereo not drawn) [Compound 220], the ED50 is > 10 mg/kg. For `Cn1cncc1CN1CCC(CCc2ccccc2)(C2CCCO2)C1` (stereo not drawn) [Compound 221, 1-methyl-5-((3-phenethyl-3-(tetrahydrofuran-2-yl)pyrrolidin-1-yl)methyl)-1H-imidazole], the ED50 was > 10 mg/kg. With `Cn1ccnc1CN1CCC(CCc2ccccc2)(C2CCCO2)C1` (stereo not drawn) [Compound 222, l-methyl-2-((3-phenethyl-3-(tetrahydrofuran-2-yl)pyrrolidin-1-yl)methyl)-1H-imidazole], the ED50 was > 10 mg/kg. In the case of `COc1ccsc1CN1CCC(CCc2ccccc2)(C2CCCO2)C1` (stereo not drawn) [Compound 223, 1-((3-methoxythiophen-2-yl)methyl)-3-phenethyl-3-(tetrahydrofuran-2-yl)pyrrolidine] it was > 10 mg/kg; in that of `Cn1ccc(CN2CCC(CCc3ccccc3)(C3CCCO3)C2)c1` (stereo not drawn) [Compound 224, 1-methyl-3-((3-phenethyl-3-(tetrahydrofuran-2-yl)pyrrolidin-1-yl)methyl)-1H-pyrrole], > 10 mg/kg; in that of `c1ccc(CCC2(C3CCCO3)CCN(Cc3ccccn3)C2)cc1` (stereo not drawn) [Compound 225, 2-((3-phenethyl-3-(tetrahydrofuran-2-yl)pyrrolidin-1-yl)methyl)pyridine], > 10 mg/kg. For `c1ccc(CCC2(C3CCCO3)CCN(Cc3cccnc3)C2)cc1` (stereo not drawn) [Compound 226, 3-((3-phenethyl-3-(tetrahydrofuran-2-yl)pyrrolidin-1-yl)methyl)pyridine] the value was < 10 mg/kg; for `Cn1cccc1CN1CCC(CCc2ccccc2)(C2CCCO2)C1` (stereo not drawn) [Compound 227, 1-methyl-2-((3-phenethyl-3-(tetrahydrofuran-2-yl)pyrrolidin-1-yl)methyl)-1H-pyrrole], > 10 mg/kg; for `c1ccc(CCC2(C3CCCO3)CCN(Cc3ccnn3-c3ccccc3)C2)cc1` (stereo not drawn) [Compound 228, 5-((3-phenethyl-3-(tetrahydrofuran-2-yl)pyrrolidin-1-yl)methyl)-1-phenyl-1H-pyrazole], > 10 mg/kg.

With `c1ccc(CCC2(C3CCCO3)CCN(CC3CCCO3)C2)cc1` (stereo not drawn) [Compound 229, 3-phenethyl-3-(tetrahydrofuran-2-yl)-1-((tetrahydrofuran-2-yl)methyl)pyrrolidine], the ED50 was > 10 mg/kg. Turning to `c1ccc(CCC2(C3CCCO3)CCN(CC3CCOC3)C2)cc1` (stereo not drawn) [Compound 230, 3-phenethyl-3-(tetrahydrofuran-2-yl)-1-((tetrahydrofuran-3-yl)methyl)pyrrolidine], the ED50 is > 10 mg/kg. With `Cc1ncc(CN2CCC(CCc3ccccc3)(C3CCCO3)C2)s1` (stereo not drawn) [Compound 231, 2-methyl-5-((3-phenethyl-3-(tetrahydrofuran-2-yl)pyrrolidin-1-yl)methyl)thiazole], the ED50 was < 10 mg/kg. For `CCOCC1(CCc2ccsc2)CCN(Cc2cnn(C)c2)CC1` [Compound 232, 4-(ethoxymethyl)-1-((1-methyl-1H-pyrazol-4-yl)methyl)-4-(2-(thiophen-3-yl)ethyl)piperidine] the value was < 10 mg/kg.

As for `CCOCC1(CCc2cccs2)CCN(Cc2cnn(C)c2)CC1` [Compound 233, 4-(ethoxymethyl)-1-((1-methyl-1H-pyrazol-4-yl)methyl)-4-(2-(thiophen-2-yl)ethyl)piperidine], the ED50 was < 10 mg/kg. With `CCOC[C@]1(CCc2ccccc2)CCN(Cc2cnn(C)c2)C1` [Compound 234, (R)-4-((3-(ethoxymethyl)-3-phenethylpyrrolidin-1-yl)methyl)-1-methyl-1H-pyrazole], the ED50 is > 10 mg/kg. In the case of `CCOC[C@@]1(CCc2ccccc2)CCN(Cc2cnn(C)c2)C1` [Compound 235, (S)-4-((3-(ethoxymethyl)-3-phenethylpyrrolidin-1-yl)methyl)-1-methyl-1H-pyrazole] it was < 10 mg/kg. For `c1ccc(CCC2(C3CCCO3)CCN(Cc3ccncc3)C2)cc1` (stereo not drawn) [Compound 236, 4-((3-phenethyl-3-(tetrahydrofuran-2-yl)pyrrolidin-1-yl)methyl)pyridine], the ED50 is > 10 mg/kg.

Consider `c1ccc(CCC2(C3CCCO3)CCN(Cc3cncnc3)C2)cc1` (stereo not drawn) [Compound 237, 5-((3-phenethyl-3-(tetrahydrofuran-2-yl)pyrrolidin-1-yl)methyl)pyrimidine], for which the ED50 is > 10 mg/kg. As for `c1ccc(CCC2(C3CCCO3)CCN(Cc3cnccn3)C2)cc1` (stereo not drawn) [Compound 238, 2-((3-phenethyl-3-(tetrahydrofuran-2-yl)pyrrolidin-1-yl)methyl)pyrazine], the ED50 is > 10 mg/kg. With `CC(=O)Nc1ccc(CN2CCC(CCc3ccccc3)(COCc3ccccc3)C2)cc1` (stereo not drawn) [Compound 239, N-(4-((3-(benzyloxymethyl)-3-phenethylpyrrolidin-1-yl)methyl)phenyl)acetamide], the ED50 was > 10 mg/kg. `Cn1cc(CN2CCC(CCc3ccccc3)(COCc3ccccc3)C2)cn1` (stereo not drawn) [Compound 240, 4-((3-(benzyloxymethyl)-3-phenethylpyrrolidin-1-yl)methyl)-1-methyl-1H-pyrazole]: the ED50 was > 10 mg/kg.

`Fc1cncc(CN2CCC(CCc3ccccc3)(C3CCCO3)C2)c1` (stereo not drawn) [Compound 241, 3-fluoro-5-((3-phenethyl-3-(tetrahydrofuran-2-yl)pyrrolidin-1-yl)methyl)pyridine]: the ED50 is > 10 mg/kg.

`COc1cncc(CN2CCC(CCc3ccccc3)(C3CCCO3)C2)c1` (stereo not drawn) [Compound 242, 3-methoxy-5-((3-phenethyl-3-(tetrahydrofuran-2-yl)pyrrolidin-1-yl)methyl)pyridine]: the ED50 is > 10 mg/kg.

Turning to `Clc1cncc(CN2CCC(CCc3ccccc3)(C3CCCO3)C2)c1` (stereo not drawn) [Compound 243, 3-chloro-5-((3-phenethyl-3-(tetrahydrofuran-2-yl)pyrrolidin-1-yl)methyl)pyridine], the ED50 is > 10 mg/kg. On to `CCOCC1(CCc2ccccc2)CCN(Cc2cccnc2)CC1` [Compound 244, 3-((4-(ethoxymethyl)-4-phenethylpiperidin-1-yl)methyl)pyridine], for which the ED50 is < 10 mg/kg. For the molecule `CCOCC1(CCc2ccccc2)CCN(Cc2cnn(C)c2)CC1` [Compound 245, 4-(ethoxymethyl)-1-((1-methyl-1H-pyrazol-4-yl)methyl)-4-phenethylpiperidine], the ED50 was < 10 mg/kg.
